In brackets after ≈: the same amount, converted by molar mass.
System: Mycobacterium tuberculosis
Test: Antimycobacterial activity against Mycobacterium tuberculosis H37Rv assessed as inhibition of bacterial growth by MABA assay
Assay type: functional

`CC#CCn1c(N2CCN(C(=S)Nc3ccccc3Cl)CC2)nc2c1c(=O)n(Cc1ccc(F)c(F)c1)c(=O)n2C` was tested. Which MIC did it give?
Its MIC is 41.9 µM (≈ 25 µg/mL).

Which MIC does the source give for `CC#CCn1c(N2CCN(C(=O)c3c(F)cc(OC)cc3F)CC2)nc2c1c(=O)n(Cc1ccc(F)c(F)c1)c(=O)n2C` here?
The MIC was 41.8 µM (≈ 25 µg/mL).

Which MIC does the source give for `CC#CCn1c(N2CCN(C(=O)C3CCC(C(F)(F)F)CC3)CC2)nc2c1c(=O)n(Cc1ccc(F)c(F)c1)c(=O)n2C` (stereo not drawn) here?
The MIC was 16.4 µM (≈ 9.97 µg/mL).

Which MIC does the source give for `CC#CCn1c(N2CCN(C(=S)Nc3ccc(Cl)cc3)CC2)nc2c1c(=O)n(Cc1ccc(F)c(F)c1)c(=O)n2C` here?
The MIC was 34.5 µM (≈ 20.6 µg/mL).

`CC#CCn1c(N2CCN(C(=O)c3cccc4ccccc34)CC2)nc2c1c(=O)n(Cc1ccc(F)c(F)c1)c(=O)n2C` was tested. Which MIC did it give?
Its MIC is 53.3 µM (≈ 31 µg/mL).

For `CC#CCn1c(N2CCN(C(=O)c3cccc(F)c3)CC2)nc2c1c(=O)n(Cc1ccc(F)c(F)c1)c(=O)n2C`, which MIC is on record?
Its MIC is 45.4 µM (≈ 25 µg/mL).

With `CC#CCn1c(N2CCN(C(=O)C3CCC3)CC2)nc2c1c(=O)n(Cc1ccc(F)c(F)c1)c(=O)n2C` as the compound, how does the MIC read?
Its MIC is 49 µM (≈ 25 µg/mL).

Which MIC does the source give for `CC#CCn1c(N2CCN(C(=O)C3CCCCN3C(=O)OC(C)(C)C)CC2)nc2c1c(=O)n(Cc1ccc(F)c(F)c1)c(=O)n2C` (stereo not drawn) here?
The MIC was 39.1 µM (≈ 25 µg/mL).

With `CC#CCn1c(N2CCN(C(=O)Cc3ccc(F)cc3)CC2)nc2c1c(=O)n(Cc1ccc(F)c(F)c1)c(=O)n2C` as the compound, how does the MIC read?
Its MIC is 44.3 µM (≈ 25 µg/mL).

With `CC#CCn1c(N2CCN(C(=O)Nc3ccc(Cl)cc3)CC2)nc2c1c(=O)n(Cc1ccc(F)c(F)c1)c(=O)n2C` as the compound, how does the MIC read?
The MIC was 41 µM (≈ 23.9 µg/mL).

`CC#CCn1c(N2CCN(C(=O)c3sccc3Cl)CC2)nc2c1c(=O)n(Cc1ccc(F)c(F)c1)c(=O)n2C` was tested. Which MIC did it give?
Its MIC is 43.7 µM (≈ 25 µg/mL).

With `CC#CCn1c(N2CCN(C(=O)c3ccccc3C(F)(F)F)CC2)nc2c1c(=O)n(Cc1ccc(F)c(F)c1)c(=O)n2C` as the compound, how does the MIC read?
The MIC was 41.6 µM (≈ 25 µg/mL).

With `CC#CCn1c(N2CCN(C(=O)c3cccnc3C(F)(F)F)CC2)nc2c1c(=O)n(Cc1ccc(F)c(F)c1)c(=O)n2C` as the compound, how does the MIC read?
Its MIC is 41.6 µM (≈ 25 µg/mL).

`CC#CCn1c(N2CCN(C(=O)Nc3ccc(C(F)(F)F)cc3)CC2)nc2c1c(=O)n(Cc1ccc(F)c(F)c1)c(=O)n2C` was tested. Which MIC did it give?
Its MIC is 5.08 µM (≈ 3.13 µg/mL).

How did the MIC turn out when `CC#CCn1c(N2CCN(C(=S)Nc3ccccc3Br)CC2)nc2c1c(=O)n(Cc1ccc(F)c(F)c1)c(=O)n2C` was run?
The MIC was 39 µM (≈ 25.1 µg/mL).

With `CC#CCn1c(N2CCN(C(=O)CCc3ccc(F)cc3)CC2)nc2c1c(=O)n(Cc1ccc(F)c(F)c1)c(=O)n2C` as the compound, how does the MIC read?
The MIC was 43.2 µM (≈ 25 µg/mL).

With `CC#CCn1c(N2CCN(S(=O)(=O)c3ccccc3)CC2)nc2c1c(=O)n(Cc1ccc(F)c(F)c1)c(=O)n2C` as the compound, how does the MIC read?
The MIC was 44 µM (≈ 25 µg/mL).

How did the MIC turn out when `CC#CCn1c(N2CCN(C(=S)Nc3cccc(Cl)c3)CC2)nc2c1c(=O)n(Cc1ccc(F)c(F)c1)c(=O)n2C` was run?
The MIC was 7.17 µM (≈ 4.29 µg/mL).

For `CC#CCn1c(N2CCN(C(=O)Nc3cccc(C(F)(F)F)c3)CC2)nc2c1c(=O)n(Cc1ccc(F)c(F)c1)c(=O)n2C`, which MIC is on record?
The MIC was 20.3 µM (≈ 12.5 µg/mL).

With `CC#CCn1c(N2CCN(C(=O)c3ccc(C(F)(F)F)cc3)CC2)nc2c1c(=O)n(Cc1ccc(F)c(F)c1)c(=O)n2C` as the compound, how does the MIC read?
Its MIC is 51.5 µM (≈ 30.9 µg/mL).

`CC#CCn1c(N2CCN(C(=O)c3nccnc3Cl)CC2)nc2c1c(=O)n(Cc1ccc(F)c(F)c1)c(=O)n2C` was tested. Which MIC did it give?
The MIC was 44 µM (≈ 25 µg/mL).

`CC#CCn1c(N2CCN(C(=O)COc3ccccc3)CC2)nc2c1c(=O)n(Cc1ccc(F)c(F)c1)c(=O)n2C` was tested. Which MIC did it give?
The MIC was 44.5 µM (≈ 25 µg/mL).

Which MIC does the source give for `CC#CCn1c(N2CCN(S(=O)(=O)c3cccc(Cl)c3)CC2)nc2c1c(=O)n(Cc1ccc(F)c(F)c1)c(=O)n2C` here?
The MIC was 12.5 µM (≈ 7.51 µg/mL).

Which MIC does the source give for `CC#CCn1c(N2CCN(C(=O)c3csc(Br)n3)CC2)nc2c1c(=O)n(Cc1ccc(F)c(F)c1)c(=O)n2C` here?
The MIC was 40.5 µM (≈ 25.1 µg/mL).

`CC#CCn1c(N2CCN(C(=O)C3Cc4ccccc4N3)CC2)nc2c1c(=O)n(Cc1ccc(F)c(F)c1)c(=O)n2C` (stereo not drawn) was tested. Which MIC did it give?
The MIC was 43.6 µM (≈ 25 µg/mL).

How did the MIC turn out when `CC#CCn1c(N2CCN(C(=O)C34CC5CC(CC(C5)C3)C4)CC2)nc2c1c(=O)n(Cc1ccc(F)c(F)c1)c(=O)n2C` was run?
The MIC was 43.4 µM (≈ 25.6 µg/mL).

`CC[C@@H](CO)NCCN[C@@H](CC)CO` [ETHAMBUTOL] was tested. Which MIC did it give?
The MIC was 7.63 µM (≈ 1.56 µg/mL).

How did the MIC turn out when `CC#CCn1c(N2CCN(C(=O)Nc3ccc(SC)cc3)CC2)nc2c1c(=O)n(Cc1ccc(F)c(F)c1)c(=O)n2C` was run?
Its MIC is 10.3 µM (≈ 6.13 µg/mL).

For `CC#CCn1c(N2CCN(C(=O)Nc3ccccc3Cl)CC2)nc2c1c(=O)n(Cc1ccc(F)c(F)c1)c(=O)n2C`, which MIC is on record?
The MIC was 49.2 µM (≈ 28.7 µg/mL).

How did the MIC turn out when `NNC(=O)c1ccncc1` [ISONIAZID] was run?
The MIC was 0.66 µM (≈ 0.0905 µg/mL).

With `CC#CCn1c(N2CCN(C(=S)Nc3c(F)cccc3Cl)CC2)nc2c1c(=O)n(Cc1ccc(F)c(F)c1)c(=O)n2C` as the compound, how does the MIC read?
The MIC was 40.6 µM (≈ 25 µg/mL).

For `C=CCNC(=O)N1CCN(c2nc3c(c(=O)n(Cc4ccc(F)c(F)c4)c(=O)n3C)n2CC#CC)CC1`, which MIC is on record?
Its MIC is 52.4 µM (≈ 26.8 µg/mL).

`O=C(O)c1cn(C2CC2)c2cc(N3CCNCC3)c(F)cc2c1=O` [CIPROFLOXACIN] was tested. Which MIC did it give?
Its MIC is 0.94 µM (≈ 0.311 µg/mL).

From ChEMBL document CHEMBL4699471, “Design and synthesis of purine connected piperazine derivatives as novel inhibitors of Mycobacterium tuberculosis” (2020)
